Patent US20030083271A1, “Topoisomerase I selective cytotoxic sugar derivatives of indolopyrrolocarbazoles” (priority 2001, published 2003)

Experiments:
[1] = target: T1, purified human topoisomerase I (Homo sapiens, UniProt P11387); experiment: Topoisomerase I-mediated single strand DNA break induction (in vitro); type: biochemical; details: median effect concentration for inducing single-strand breaks in the DNA substrate; read-out: Topo I EC50
T1 construct: purchased Topogen
T1 sequence (P11387 1-765): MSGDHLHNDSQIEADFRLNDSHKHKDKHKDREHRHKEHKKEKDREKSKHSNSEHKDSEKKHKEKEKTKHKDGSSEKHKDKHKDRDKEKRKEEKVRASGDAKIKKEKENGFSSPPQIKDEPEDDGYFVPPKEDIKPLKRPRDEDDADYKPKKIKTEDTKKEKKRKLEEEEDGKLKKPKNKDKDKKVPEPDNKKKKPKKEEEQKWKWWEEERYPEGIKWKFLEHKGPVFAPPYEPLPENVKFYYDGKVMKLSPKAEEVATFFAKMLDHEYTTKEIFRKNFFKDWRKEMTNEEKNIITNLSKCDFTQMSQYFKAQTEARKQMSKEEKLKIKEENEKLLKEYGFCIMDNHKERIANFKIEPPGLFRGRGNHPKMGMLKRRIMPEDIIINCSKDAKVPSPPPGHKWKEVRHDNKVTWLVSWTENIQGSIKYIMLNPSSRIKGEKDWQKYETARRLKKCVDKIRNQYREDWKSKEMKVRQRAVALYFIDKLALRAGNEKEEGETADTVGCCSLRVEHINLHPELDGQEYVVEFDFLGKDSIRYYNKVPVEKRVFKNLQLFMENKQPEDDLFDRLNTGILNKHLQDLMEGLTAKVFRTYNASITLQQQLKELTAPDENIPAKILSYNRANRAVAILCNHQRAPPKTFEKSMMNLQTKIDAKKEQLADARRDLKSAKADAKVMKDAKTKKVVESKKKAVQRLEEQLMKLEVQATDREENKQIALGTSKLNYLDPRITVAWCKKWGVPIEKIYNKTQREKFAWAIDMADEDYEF
Method: Topoisomerase I activity was measured as described below. The procedure for assaying compound-induced, topoisomerase I-mediated single strand breaks in DNA was essentially that described by Hsiang, et al., (J. Biol. Chem. 1985, 260, 14873-14878). Samples dissolved in 100% DMSO as either […] or 10 mg/ml solutions, unless otherwise stated, were diluted in Tris-EDTA buffer. Marine bacteriophage PM2 DNA (Boehringer Mannheim) was also diluted in Tris-EDTA buffer to a concentration of 0.02 μg/μl. Different dilutions of the compound being evaluated were mixed with diluted DNA and this mixture was added to […] (one unit of enzyme activity is defined as the amount capable of relaxing 100 ng of supercoiled DNA in approximately 30 minutes at 37° C.) aliquots of purified human topoisomerase I (Topogen) in 2X reaction buffer to start the reaction. The compound-DNA-enzyme mixture was incubated for 30 minutes at 37° C. before stopping the reaction with warm stop buffer containing sodium dodecyl sulfate and proteinase K (Sigma). These mixtures were allowed to incubate at 37° C. for another 10 minutes, at which time the mixtures were removed from the waterbath and extracted with a 24:1 mixture of chloroform/isoamyl alcohol. Following centrifugation, aliquots of the aqueous phases were placed in wells of a 0.9% agarose (SeaKem) gel in Tris-borate buffer containing 0.5 μg/ml of ethidium bromide and subjected to electrophoresis for 15 hours to separate the different topological isomers and nicked and broken DNAs. After destaining the gel in water, the ethidium bromide stained DNA reaction products were visualized by exposing the gel to UV irradiation. Negatives of the photographs of the irradiated gels were scanned with a densitometer and areas under the peaks were calculated in order to obtain percent single strand DNA break formation for each sample. A median effective concentration (EC50) was obtained for each compound by interpolation between points of the resulting dose-effect curve which defines the potency of the compound for its effect in inducing topoisomerase I-mediated single strand breaks in DNA. The topoisomerase I activities for certain compounds of the present invention are shown below in Table I.

[2] = test system: P388 murine leukemia cells; experiment: In vitro cell-based cytotoxicity, parental P388 cells; details: Mus musculus, 72 h, median cytotoxic concentration, 3 days continuous exposure
Method: The proliferation inhibition activity against the murine P388 cell line was measured as follows. Evaluation of a soluble tetrazolium/formazan assay for cell growth and drug sensitivity in culture, using human and other tumor cell lines, was done according to the procedure described in Cancer Res. 1988, 48, 4827-4833. Cells were plated at 4000 cells/well in 96 well microtiter plates and 24 h later drugs were added and serially diluted. The cells were incubated at 37° C. for 72 h, at which time a tetrazolium dye, XTT, containing phenazine methosulfate was added. A dehydrogenase enzyme in live cells reduced the XTT to a form that absorbs light at 450 nm, which could be quantitated spectrophotometrically. The greater the absorbance the greater the number of live cells. The results are expressed as an IC50, which is the drug concentration required to inhibit cell proliferation (i.e., absorbance at 450 nm) to 50% of that of untreated control cells.
(§1) Similarly, P338 murine leukemia cells were maintained in RPMI 1640 supplemented with 20% fetal bovine serum and 10 μM 2-mercaptoethanol. A camptothecin resistant subline, P388/CPT45, was selected for resistance to camptothecin and is over 1000-fold resistant to this compound (Woessner, et al. Oncol. Res. 1992, 4, 481-488).
(§2) In vitro cytotoxicity was assessed in tissue culture cells by MTS (3-(4,5-dimethylthiazol-2-yl)-5-(3-carboxymethoxyphenyl)-2-(4-sulphenyl)-2H-tetrazolium, inner salt) assay (Riss and Moravec, Mol. Biol. Cell 1992, 3 (Suppl.), 184a). Cells were plated at 8,000 cell/well in 96 well microtiter plates and 24 hours later serial dilutions of the test compounds were made and added to the cells. The cells were incubated at 37° C. for 72 hours, at which time the tetrazolium dye, MTS at 333 μg/ml (final concentration), in combination with the electron coupling agent phenazine methosulfate at 25 μM (final concentration) was added. A dehydrogenase enzyme in live cells reduces the MTS to a form that absorbs light at 492 nm which can be quantitated spectrophotometrically. The greater the absorbance the greater the number of live cells. The results are expressed as an IC50, which is the drug concentration required to inhibit cell proliferation (i.e., absorbance at 492 nm) to 50% of that of untreated control cells.
The cytotoxic activity for certain compounds of the present invention, in both parental P388 and the camptothecin-resistant P388/CPT45 cell lines are shown below in Table I.

P388/CPT45 cells = experiment: Cytotoxicity in camptothecin-resistant P388/CPT45 cells relative to parental P388 (selectivity index R/S); type: cell-based, murine; details: IC50 P388/CPT45 cells divided by IC50 parental P388 cells
From the text: The present invention includes fluoro sugar and other sugar derivatives of indolopyrrolocarbazoles of formula (I), as defined above. […] Most importantly, the instant invention describes topo I active compounds, related to compounds disclosed in WO 98/07433 and co-pending U.S. application, Ser. No. 08/914566 (both herein incorporated by reference), which display a surprising and unexpected selectivity index when evaluated for cytotoxicity in certain cell lines which express normal levels of topo I required for cell proliferation, compared with cell lines that are deficient in or underexpress topo I. Said “selectivity index” (R/S) was generated by dividing the cytotoxic IC50 of a particular compound against a camptothecin-resistant murine leukemia cell line, P388/CPT45, by the IC50 generated when using the parent P388 cell line. […] A level of selectivity was judged to be advantageous and beneficial in, for example, modulating potential undesirable side effects and/or toxicity. The compounds of the present invention were selected from compounds generically disclosed in WO 98/07433 and co-pending U.S. patent application, Ser. No. 08/914566, on the basis of an unexpected and unpredictable selectivity index (see Table I and II). […] Simple changes in the substitution of the sugar portion or the indolopyrrolocarbazole portion of the present invention will change the selectivity. This change in selectivity is not predictable by one skilled in the art.
as §1, §2
The selectivity index (R/S) is defined as the ratio obtained by dividing the IC50 value obtained using P388/CPT45 cells by that obtained using parental P388 cells. The R/S ratios used to determine the relative topo I selectivity of selected compounds of this invention are shown below in Table I.

| Structure (SMILES) | EC50 [1] [µM] | IC50 [2] [µM] | Selectivity Index R/S (P388/CPT45 cells) |
| --- | --- | --- | --- |
| O=C1NC(=O)c2c1c1c3cc(F)c(F)cc3[nH]c1c1c2c2cc(F)c(F)cc2n1[C@@H]1O[C@H](CO)[C@@H](F)[C@H](O)[C@H]1O [Example 28, 12-[4-Deoxy-4-fluoro-β-D-glucopyranosyl]-2,3,9,10-tetrafluoro-12,13-dihydro-5H-indolo[2,3-a]pyrrolo[3,4-c]carbazole-5,7(6H)-dione] | 0.05 | 0.004 | 499.2 |
| O=C1NCc2c1c1c3cc(F)ccc3[nH]c1c1c2c2cc(F)ccc2n1[C@@H]1O[C@H](CO)[C@@H](F)[C@H](O)[C@H]1O [Example 32, 12-[4-Deoxy-4-fluoro-β-D-glucopyranosyl]-3,9-difluoro-12,13-dihydro-5H-indolo[2,3-a]pyrrolo[3,4-c]carbazole-5(6H)-one] |  | 0.005 | 1051.8 |
| O=C1NC(=O)c2c1c1c3cc(F)ccc3[nH]c1c1c2c2cc(F)ccc2n1[C@@H]1O[C@H](CO)C[C@@H](O)[C@H]1O [Example 20, 12-[4-Deoxy-β-D-allopyranosyl)-3,9-difluoro-12,13-dihydro-5H-indolo [2,3-a]pyrrolo[3,4-c]carbazole-5,7(6H)-dione] | 0.02 | 0.002 | 201.2 |
| O=C1NC(=O)c2c1c1c3cc(F)ccc3[nH]c1c1c2c2cc(F)ccc2n1[C@H]1O[C@H](CF)[C@@H](O)[C@H](O)[C@H]1O [Example 39] | 0.1 | 0.235 | 5.0 |
| O=C1NC(=O)c2c1c1c3cc(F)ccc3[nH]c1c1c2c2cc(F)ccc2n1[C@@H]1O[C@H](CO)C(F)(F)[C@H](O)[C@H]1O [Example 25, 12-[4,4-Difluoro-4-deoxy-β-D-glucopyranosyl]-3,9-difluoro-12,13-dihydro-5H-indolo[2,3-a]pyrrolo[3,4-c]carbazole-5,7(6H)-dione] | 0.01 | 0.003 | 381.5 |
| CNCC(=O)NC[C@H]1O[C@@H](n2c3ccc(F)cc3c3c4c(c5c6cc(F)ccc6sc5c32)C(=O)NC4=O)[C@H](O)[C@@H](O)[C@@H]1O [Example 23, 12-[6-Deoxy-6-[(N-methylglycinyl)amino]-β-D-glucopyranosyl]-3,9-difluoro-5H, 13H-benzo[b]thienyl[2,3-a]pyrrolo[3,4-c]carbazole-5,7(6H)-dione] |  | 0.025 | 306.8 |
| C[S+]([O-])C[C@H]1O[C@H](n2c3ccc(F)cc3c3c4c(c5c6cc(F)ccc6[nH]c5c32)C(=O)NC4=O)[C@H](O)[C@@H](O)[C@@H]1O (some centres unmarked) [Example 7] | 0.01 | 0.076 | >116.4 |
| CC(C)CC(N)C(=O)O[C@H]1[C@H](n2c3cc(F)c(F)cc3c3c4c(c5c6cc(F)c(F)cc6[nH]c5c32)C(=O)NC4=O)O[C@H](CF)C[C@@H]1O (stereo in doubt) [Example 5, 12-[4,6-Dideoxy-6-fluoro-2-O-leucyl-β-D-glucopyranosyl]-2,3,9,10-tetrafluoro-12,13-dihydro-5H-indolo[2,3-a]pyrrolo[3,4-c]carbazole-5,7(6H)-dione] |  | 0.032 | 112.5 |
| O=C1NCc2c1c1c3cc(F)ccc3n([C@@H]3O[C@H](CO)[C@@H](F)[C@H](O)[C@H]3O)c1c1[nH]c3ccc(F)cc3c21 [Example 34, 12-[4-Deoxy-4-fluoro-β-D-glucopyranosyl)-3,9-difluoro-12,13-dihydro-5H-indolo[2,3-a]pyrrolo[3,4-c]carbazole-7(6H)-one] |  | 0.002 | 2859.5 |
| C[C@@H]1C[C@H](O)[C@@H](O)[C@H](n2c3ccc(F)cc3c3c4c(c5c6cc(F)ccc6[nH]c5c32)C(=O)NC4=O)O1 [Example 11, 12-[4,6-Dideoxy-β-D-glucopyranosyl]-3,9-difluoro-12,13-dihydro-5H-indolo[2,3-a]pyrrolo[3,4-c]carbazole-5,7(6H)-dione] |  | 0.016 | 125.3 |
| C[C@@]1(O)C[C@@H](CO)O[C@@H](n2c3cc(F)c(F)cc3c3c4c(c5c6cc(F)c(F)cc6[nH]c5c32)C(=O)NC4=O)[C@@H]1O [Example 29, 12-[4-Deoxy-3-methyl-β-D-allopyranosyl]-2,3,9,10-tetrafluoro-12,13-dihydro-5H-indolo[2,3-a]pyrrolo[3,4-c]carbazole-5,7(6H)-dione] |  | 0.005 | 539.6 |
| C[C@]1(O)C[C@@H](CO)O[C@@H](n2c3cc(F)c(F)cc3c3c4c(c5c6cc(F)c(F)cc6[nH]c5c32)C(=O)NC4=O)[C@@H]1O [Example 18, 12-[4-Deoxy-3-methyl-β-D-glucopyranosyl]-2,3,9,10-tetrafluoro-12,13-dihydro-5H-indolo[2,3-a]pyrrolo[3,4-c]carbazole-5,7(6H)-dione] |  | 0.008 | 184.8 |
